Results reported in article PMC7712428, “Dimethoate Induces DNA Damage and Mitochondrial Dysfunction Triggering Apoptosis in Rat Bone-Marrow and Peripheral Blood Cells” (Toxics, 2020).
Like-named read-outs stand apart in the source and are kept apart here. Marks after values point to notes of the source that are not given here.

What was measured:
rat WBCs = conditions: Mean ± SD, 40 mg/kgbw; for Sub-G1: cells percentage (apoptosis); for G1 / G2/M / S: cells percentage
Excerpt: (§1) The experimental animals—Rattus norvegicus (Wistar strain; 8–10 weeks old; 120 ± 20 gm; males only) were acquired from Indian Institute of Integrative Medicine (IIIM-CSIR) (Jammu, India), quarantined, acclimatized and sacrificed as per standard practice conforming to the University Ethical Regulations. After acclimatization, rats were divided into five groups by stratified randomization with five animals per group. […] Distilled water was used to prepare dosing solutions of test agent and injected via intraperitoneal (i.p.) injection. At 24, 48 and 72 h post-dosing, 5 rats per duration were sacrificed and necessary tissues were isolated for different cytogenetic and molecular parameters. For CA assessment, separate experimental lot was used due to colchicine treatment.
(§2) WBCs were isolated by following the protocol of Lone et al.. Blood was collected in 0.1% EDTA from retro-orbital plexus of rat, followed by incubation for 30 min. 500 µL of blood was then added to a centrifuge tube with 1 mL FACS lysing solution. The blood was incubated for 10 min and centrifuged (2000 rpm, 10 min) at 25 °C. After discarding the supernatant, pellet was washed in 1mL FACS lysing solution followed by centrifuging at 2000 rpm for 5 min. Repeated this step twice and then pellet was put in 500 µL of PBS, leaving only WBCs.
Post completion of exposures, PBS was used to wash the harvested cells and fixed in cold ethanol (70%) for 48 h. Cells were digested by RNase (400 μg/mL) at 37 °C for 45 min. After incubating the cells with Propidium iodide (10 μg/mL), examined instantly on flow cytometer FACSAriaII (Becton Dickinson, San Jose, CA, USA). A total of 10,000 events were obtained for cell cycle analysis.

bone marrow cells = conditions: for P/N: PCE:NCE ratio
Excerpt: as §1
MN assay followed the protocol of Schmid. Immediately after sacrificing the animals, both femurs were removed from the pelvic bone and freed from the extra muscles. After cutting the epiphyses, the bone marrow was collected by gentle flushing with 2 mL FBS. Centrifuge cell suspension at 1000 rpm for 5 min and discarded the supernatant. The pellets obtained were saved in 50 μL fresh FBS. Re-suspended the cell pellet and a small drop was spread onto clean grease-free glass slides and dried in air. By using absolute methanol, the smears were fixed for 10min following the staining by May-Grunwald / buffered Giemsa at pH 6.8. Micronuclei and the ratio of polychromatic erythrocyte (PCE) to normochromatic erythrocyte (NCE) i.e., P/N were scored. The micronucleus frequencies (indicated as mean percent micronucleated cells) were examined by considering the micronucleated PCEs number (MNPCEs) from at least 2000 PCEs/animal. Cytotoxic effect of test compound was evaluated by calculating the PCE:NCE ratio in at least 1000 erythrocytes per animal. For final observation, DPX mounted slides were photographed at 100× with oil immersion (Olympus U—PMTV microscope mounted with optical zoom camera).

Lymphocytes = conditions: initial exposure time
Excerpt: as §1, §2
Protocol of Majeed and colleagues was employed for flow cytometric measurements of change in Ψm. […] Leukocytes were identified via forward and side scatter.

[1] = cited from earlier work

O=P1(N(CCCl)CCCl)NCCCO1 (centres unmarked) [Cyclophosphamide, reference compound]
Sub-G1 (rat WBCs; 24 h): 91.3 ± 4.12 ***^,a | Sub-G1 (rat WBCs; 48 h): 76.3 ± 4.16 ***^,a | Sub-G1 (rat WBCs; 72 h): 98.4 ± 6.01 ***^,a | G1 (rat WBCs; 24 h): 6.06 ± 1.26 | G2/M (rat WBCs; 24 h): 2.53 ± 0.06 | S (rat WBCs; 24 h): 0.2 ± 0.01 | G1 (rat WBCs; 48 h): 21.33 ± 2.41 | G2/M (rat WBCs; 48 h): 1.3 ± 0.2 | S (rat WBCs; 48 h): 0.06 ± 0.01 | G1 (rat WBCs; 72 h): 0.87 ± 0.03 | G2/M (rat WBCs; 72 h): 0.4 ± 0.02 | S (rat WBCs; 72 h): 0.33 ± 0.11 | MNPCE (Mean% ± SD) (bone marrow cells; 40 mg/kgbw i.p., 24 h): 10.6 ± 0.81 % | MNPCE (Mean% ± SD) (bone marrow cells; 40 mg/kgbw i.p., 48 h): 8.2 ± 0.66 % | MNPCE (Mean% ± SD) (bone marrow cells; 40 mg/kgbw i.p., 72 h): 7.1 ± 0.43 % | P/N (bone marrow cells; 40 mg/kgbw i.p., 24 h): 0.604 * | P/N (bone marrow cells; 40 mg/kgbw i.p., 48 h): 0.529 ** | P/N (bone marrow cells; 40 mg/kgbw i.p., 72 h): 0.581 **

CNC(=O)CSP(=S)(OC)OC [DM, 0,0- Dimethyl S-(N-methylcarbamoylmethyl) phosphorodithiote]
maximum MMP loss (Lymphocytes; lymphocytes): greater than 30% | MMP loss in lymphocytes (Lymphocytes; range over increased DM doses): 6.3–32.3% | hazard label [1]: Class II, moderately hazardous | MNPCE (Mean% ± SD) (bone marrow cells; 20 mg/kgbw i.p., 24 h): 4.4 ± 0.51 % | MNPCE (Mean% ± SD) (bone marrow cells; 20 mg/kgbw i.p., 48 h): 4.0 ± 0.44 % | MNPCE (Mean% ± SD) (bone marrow cells; 20 mg/kgbw i.p., 72 h): 3.6 ± 0.50 % | MNPCE (Mean% ± SD) (bone marrow cells; 40 mg/kgbw i.p., 24 h): 5.2 ± 0.58 % | MNPCE (Mean% ± SD) (bone marrow cells; 40 mg/kgbw i.p., 48 h): 4.8 ± 0.86 % | MNPCE (Mean% ± SD) (bone marrow cells; 40 mg/kgbw i.p., 72 h): 4.1 ± 0.73 % | MNPCE (Mean% ± SD) (bone marrow cells; 60 mg/kgbw i.p., 24 h): 5.6 ± 0.7% | MNPCE (Mean% ± SD) (bone marrow cells; 60 mg/kgbw i.p., 48 h): 4.9 ± 0.74 % | MNPCE (Mean% ± SD) (bone marrow cells; 60 mg/kgbw i.p., 72 h): 3.8 ± 0.80 % | P/N (bone marrow cells; 20 mg/kgbw i.p., 24 h): 0.740 * | P/N (bone marrow cells; 20 mg/kgbw i.p., 48 h): 0.736 * | P/N (bone marrow cells; 20 mg/kgbw i.p., 72 h): 0.731 * | P/N (bone marrow cells; 40 mg/kgbw i.p., 24 h): 0.728 * | P/N (bone marrow cells; 40 mg/kgbw i.p., 48 h): 0.715 * | P/N (bone marrow cells; 60 mg/kgbw i.p., 24 h): 0.725 * | P/N (bone marrow cells; 60 mg/kgbw i.p., 48 h): 0.721 * | P/N (bone marrow cells; 60 mg/kgbw i.p., 72 h): 0.718 *
